These are literature values, as cited in US20080161587A1, “Crystallization method for purification of calcipotriene” (Teva Pharmaceuticals USA, Inc., priority 2002, published 2008).

SMILES strings stand for the structures.

For `C=C1/C(=C\C=C2/CCC[C@]3(C)[C@@H]([C@H](C)/C=C/[C@@H](O)C4CC4)CC[C@@H]23)C[C@@H](O)C[C@@H]1O` [calcipotriene, (5Z, 7E, 22E, 24S)-24-cyclopropyl-9,10-secochola-5,7,10(19), 22-tetraene-1α, 3β, 24-triol], where the note is “highly a polar solvents (e.g. hydrocarbons)”, the “solubility in highly apolar solvents” value is reported as “essentially insoluble”. Further, for the setting “methanol, ethanol, and isopropanol (IPA)”, the “solubility in alcoholic solvents” value is on record as “highly soluble”. Also, for the setting “solvent methyl formate”, the “solubility of calcipotriene in methyl formate” value is “about 1 g calcipotriene/150 mL of methyl formate”.
